# Experimental data taken from patent US20110123510A1, “Methods of Affecting Biological Function Through Circadian Clock Feedback Cycle by NAMPT-Mediated NAD+ Biosynthesis” (WASHINGTON UNIVERSITY, priority 2009, published 2011).
# Key:
# [1] = test system: CLOCK:BMAL1-driven transcription of Per2:luciferase; assay: Per2:luciferase transcriptional reporter assay in HEK293 cells; format: cell-based
# Protocol: Luciferase Assays. HEK293 and HepG2 cells were transiently transfected with Clock (100 ng), Bmal1 (100 ng), firefly luciferase reporter (100 ng), and renilla luciferase reporter (control for transfection efficiency) (4 ng) using Lipofectamine 2000. Increasing doses of Sirt1 (200-800 ng), resveratrol (20, 50, 100 uM), nicotinamide (1, 5, 10 mM), Ex-527 (0.1 or 1.0 uM), or FK866 (10 nM) were added as indicated. 48 hrs following transfection, cells were lysed and luciferase activity monitored using the Dual-Luciferase® Reporter Assay System (Promega). Firefly luciferase values were normalized to renilla luciferase values, and a minimum of 3 independent experiments was performed in triplicate for each assay.
# [2] = test system: SIRT1 target genes; assay: mRNA expression of SIRT1 target genes in primary hepatocytes (quantitative real-time PCR); format: cell-based, mice; conditions: 200 nM FK866 for 24 hours (FIG. 2B)
# Protocol: (§1) Quantitative Real-Time PCR. Total RNA was extracted from frozen tissue with Tri Reagent (Molecular Research Center, Inc.). cDNA was synthesized using the High Capacity cDNA Reverse Transcription kit (Applied Biosystems). Real-time PCR was performed and analyzed using an Applied Biosystems 7900HT Fast Real-Time PCR System (Applied Biosystems). PCR conditions were: 10 min at 95° C., then 35 cycles of 10 s at 95° C., 15 s at 60° C. Relative expression levels (normalized to Gapdh) were determined using the comparative CT method.
# (§2) Primary Hepatocyte Isolation and Adenoviral Infection.
# [3] = test system: NAMPT-mediated NAD+ biosynthesis; conditions: primary hepatocytes, 200 nM FK866 for 24 hours (FIG. 2A)
# Protocol: NAD^+Measurements. NAD^+ levels were measured using HPLC with Waters 515 pumps and a 2487 detector with a Supelco LC-18-T column (15 cm×4.6 cm). Briefly, frozen liver tissues or cultured cells were extracted in 1M perchloric acid and neutralized in 3M K2CO3 on ice. After centrifugation, the supernatant was mixed with Buffer A (50 mM K2PO4/KHPO4, pH 7.0) and loaded on to the column. The HPLC was run at a flow rate of 1 ml/min with 100% Buffer A from 0-5 min, a linear gradient to 95% Buffer N5% Buffer B (100% methanol) from 5-6 min, 95% Buffer N5% Buffer B from 6-11 min, a linear gradient to 85% Buffer N15% Buffer B from 11-13 min, 85% Buffer A/15% Buffer B from 13-23 min, and a linear gradient to 100% Buffer A from 23-24 min. NAD^+ eluted as a sharp peak at 15 min and was quantitated based on the peak area compared to a standard curve and normalized to tissue weight of frozen liver tissues or to protein content of cultured cells.
# [4] = test system: Per2 RNA oscillation; assay: Per2 RNA oscillation in primary hepatocytes following serum shock; format: cell-based, mice; conditions: primary hepatocytes after serum shock, 200 nM FK866 added at t=2 (FIG. 3B); vehicle 2.2 day
# Protocol: as §1, §2
# Synchronization of Primary Hepatocytes by Serum Shock. Hepatocytes were synchronized by changing to media containing 50% horse serum (t=0) for 2 hrs and then maintaining cells in media containing 0.5% FBS (A. Balsalobre, F. Damiola, U. Schibler, Cell 93, 929 (1998)). For FK866 application, 200 nM FK866 was added to the culture at t=2. RNA samples were collected at the indicated time points, and the expression of clock genes was examined by quantitative real-time PCR as described above. Damping rate was assessed as the decay rate of the oscillations of averaged Per2 RNA abundance assuming exponential decay.
smiles,measurement,setting,value
NC(=O)C1CCCc2c1[nH]c1ccc(Cl)cc21 (stereo not drawn) [EX-527],Per2:luciferase transcription,[1]; Ex-527 0.1 and 1.0 uM (FIG. 6C),showed a similar trend
O=C(/C=C/c1cccnc1)NCCCCC1CCN(C(=O)c2ccccc2)CC1 [FK866],reduction in mRNA expression level of G6 Pase,[2],~30%
same,reduction in mRNA expression level of Pepck,[2],~30%
same,CLOCK:BMAL1-driven transcription of the Per2:luciferase reporter,"[1]; HEK293 cells, 10 nM FK866 for 24 or 48 hours (FIG. 2C)",significant increase
same,SIRT1-dependent suppression of CLOCK:BMAL1-mediated transcription,[1]; Sirt1 (800 ng) and 10 nM FK866 for 48 hours (FIG. 2E),abrogated
same,NAD+ biosynthesis (NAD+ levels),[3],significantly inhibited
same,damping rate of Per2 oscillation,[4],5.3 days
"NC(=O)c1cccnc1 [nicotinamide, 3-pyridinecarboxamide]",Per2:luciferase transcription,"[1]; increasing doses of nicotinamide 1, 5 and 10 mM (FIG. 6B)",activated
Oc1ccc(C=Cc2cc(O)cc(O)c2)cc1 [resveratrol],Per2:luciferase transcription,"[1]; increasing doses of resveratrol 20, 50 and 100 uM (FIG. 6A)",inhibited
